Values of other authors in patent US20160304881A1, “DDR1 ANTAGONIST OR AN INHIBITOR OF DDR1 GENE EXPRESSION FOR USE IN THE PREVENTION OR TREATMENT OF CRESCENTIC GLOMERULONEPHRITIS” (INSERM (INSTITUT NATIONAL DE LA SANTE ET DE LA RECHERCHE …, priority 2011, published 2016).

Biological target: DDR1 (Homo sapiens, UniProt Q08345)
Settings: described in Day et al. (2008)

DDR1, sequence (Q08345 19-913): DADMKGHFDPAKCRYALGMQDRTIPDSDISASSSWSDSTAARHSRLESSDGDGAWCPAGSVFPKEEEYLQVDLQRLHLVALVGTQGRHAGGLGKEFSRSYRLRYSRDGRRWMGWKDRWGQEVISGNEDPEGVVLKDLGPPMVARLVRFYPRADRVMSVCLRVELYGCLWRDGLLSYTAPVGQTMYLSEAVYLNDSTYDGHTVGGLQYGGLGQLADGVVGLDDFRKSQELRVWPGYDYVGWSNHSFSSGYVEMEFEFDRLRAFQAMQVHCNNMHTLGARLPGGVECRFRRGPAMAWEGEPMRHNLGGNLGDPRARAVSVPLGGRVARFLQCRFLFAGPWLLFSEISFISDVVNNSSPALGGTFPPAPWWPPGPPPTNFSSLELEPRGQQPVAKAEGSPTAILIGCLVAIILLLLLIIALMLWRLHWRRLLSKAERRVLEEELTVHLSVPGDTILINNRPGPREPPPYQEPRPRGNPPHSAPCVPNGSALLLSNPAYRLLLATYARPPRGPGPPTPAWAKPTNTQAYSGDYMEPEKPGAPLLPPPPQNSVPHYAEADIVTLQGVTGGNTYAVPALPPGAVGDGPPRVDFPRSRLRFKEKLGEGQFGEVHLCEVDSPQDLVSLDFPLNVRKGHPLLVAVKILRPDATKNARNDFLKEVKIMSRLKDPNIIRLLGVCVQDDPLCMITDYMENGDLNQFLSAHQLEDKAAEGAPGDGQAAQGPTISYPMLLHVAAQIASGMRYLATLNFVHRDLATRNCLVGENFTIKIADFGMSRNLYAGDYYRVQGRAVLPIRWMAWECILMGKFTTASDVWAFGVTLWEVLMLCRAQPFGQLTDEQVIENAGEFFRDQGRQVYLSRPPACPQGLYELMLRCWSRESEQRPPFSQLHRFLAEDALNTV

| Compound | collagen-induced DDR1 activation |
| --- | --- |
| Cc1nc(Nc2ncc(C(=O)Nc3c(C)cccc3Cl)s2)cc(N2CCN(CCO)CC2)n1 [dasatinib, N-(2-chloro-6-methylphenyl)-2-[[6-[4-(2-hydroxyethyl)-1-piperazinyl]-2-methyl-4-pyrimidinyl]amino]-5-thiazole carboxamide] | inhibitors of collagen-induced DDR1 activation |
| Cc1cn(-c2cc(NC(=O)c3ccc(C)c(Nc4nccc(-c5cccnc5)n4)c3)cc(C(F)(F)F)c2)cn1 [nilotinib, 4-methyl-N-[3-(4-methyl-1H-imidazol-1-yl)-5-(trifluoromethyl)phenyl]-3-[(4-pyridin-3-ylpyrimidin-2-yl)amino]benzamide] | inhibitors of collagen-induced DDR1 activation |
